pIC50: −log10 of the molar value.
Experiments:
[1] = target: T1, Serine/threonine-protein kinase PAK 1 (Homo sapiens, UniProt Q13153); test: Inhibition of PAK1
[2] = target: Ribosomal protein S6 kinase beta-1 (Homo sapiens) (UniProt P23443); test: Inhibition of p70S6K at 33 uM
[3] = target: T2, Serine/threonine-protein kinase Sgk1 (Homo sapiens) (UniProt O00141); test: Inhibition of SGK1 at 33 uM
T2 sequence (whole entry): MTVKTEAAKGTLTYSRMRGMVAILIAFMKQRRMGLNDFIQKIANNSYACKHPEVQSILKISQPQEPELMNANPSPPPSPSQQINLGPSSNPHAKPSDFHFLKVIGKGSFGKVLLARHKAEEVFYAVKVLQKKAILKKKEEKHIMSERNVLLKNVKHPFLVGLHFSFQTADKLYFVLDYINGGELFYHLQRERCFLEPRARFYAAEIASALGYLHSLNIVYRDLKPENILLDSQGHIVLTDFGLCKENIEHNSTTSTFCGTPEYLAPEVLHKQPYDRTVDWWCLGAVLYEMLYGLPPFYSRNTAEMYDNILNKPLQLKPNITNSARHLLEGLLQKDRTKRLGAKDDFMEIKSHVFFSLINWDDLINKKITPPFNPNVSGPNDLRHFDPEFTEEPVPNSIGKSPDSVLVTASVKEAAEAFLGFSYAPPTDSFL

[4] = target: T1, Serine/threonine-protein kinase PAK 1; test: Inhibition of PAK1 at 31 uM

T1 sequence (Q13153 whole entry): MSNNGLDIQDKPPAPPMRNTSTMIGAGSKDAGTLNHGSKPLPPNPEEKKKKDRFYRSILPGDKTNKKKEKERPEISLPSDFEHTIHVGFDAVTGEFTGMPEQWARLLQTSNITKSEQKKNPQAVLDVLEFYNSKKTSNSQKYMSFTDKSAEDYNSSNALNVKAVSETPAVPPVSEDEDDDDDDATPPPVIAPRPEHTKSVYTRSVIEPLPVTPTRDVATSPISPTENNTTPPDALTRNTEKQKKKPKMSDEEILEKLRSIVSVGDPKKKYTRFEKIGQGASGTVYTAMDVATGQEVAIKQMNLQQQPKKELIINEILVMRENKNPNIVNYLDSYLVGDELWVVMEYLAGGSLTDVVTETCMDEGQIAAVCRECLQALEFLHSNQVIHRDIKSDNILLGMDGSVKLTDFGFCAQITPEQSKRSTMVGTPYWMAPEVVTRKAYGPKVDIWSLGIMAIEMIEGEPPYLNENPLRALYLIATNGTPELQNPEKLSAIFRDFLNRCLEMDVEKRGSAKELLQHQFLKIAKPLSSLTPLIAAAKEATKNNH
Chain of Ribosomal protein S6 kinase beta-1 (Homo sapiens) (P23443 whole entry, looked up): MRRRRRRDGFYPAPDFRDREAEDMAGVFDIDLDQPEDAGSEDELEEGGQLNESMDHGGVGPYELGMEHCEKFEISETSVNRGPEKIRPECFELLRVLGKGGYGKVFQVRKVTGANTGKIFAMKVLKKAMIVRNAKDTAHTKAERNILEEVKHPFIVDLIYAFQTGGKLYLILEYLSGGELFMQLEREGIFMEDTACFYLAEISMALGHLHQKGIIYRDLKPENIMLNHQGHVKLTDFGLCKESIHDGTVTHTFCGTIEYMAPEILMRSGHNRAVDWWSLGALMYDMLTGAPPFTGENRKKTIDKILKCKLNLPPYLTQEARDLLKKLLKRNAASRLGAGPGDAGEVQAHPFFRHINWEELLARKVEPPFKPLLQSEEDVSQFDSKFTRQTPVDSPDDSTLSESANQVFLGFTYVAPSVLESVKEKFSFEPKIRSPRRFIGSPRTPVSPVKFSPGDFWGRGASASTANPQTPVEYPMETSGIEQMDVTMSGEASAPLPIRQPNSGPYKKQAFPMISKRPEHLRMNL

Structure (SMILES) | pIC50 [1] | also measured
CC(Sc1ncnc2nc[nH]c12)c1ccccc1Cl (configuration not stated) | 4.64 | 
COc1c2occc2cc2ccc(=O)oc12 |  | inhibition [2]: 64%
O=C(O)c1cc(/N=N/c2ccc(S(=O)(=O)Nc3ccccn3)cc2)ccc1O |  | inhibition [3]: 70%
Nc1nc(N)c2nc(-c3ccccc3)c(N)nc2n1 |  | inhibition [4]: 100%; inhibition [2]: 95%; inhibition [3]: 94%
Nc1nc2[nH]cnc2c(=S)[nH]1 |  | inhibition [4]: 31%
c1nc(N2CCOCC2)c2nc[nH]c2n1 | 4.74 | 

Second part, led by results:

pIC50 [1] | Structure (SMILES) | also measured
4.64 | CC1CC(Nc2ncnc3nc[nH]c23)CC(C)(C)C1 (configuration not stated) | 
4.51 | c1nc2nc(NC3CCCCC3)ncc2[nH]1 | 
4.74 | c1nc(NC2CCCC2)c2nc[nH]c2n1 | 
4.42 | CCCCCSc1ncnc2nc[nH]c12 | 

Reference: ChEMBL document CHEMBL1141629, “Kinase-likeness and kinase-privileged fragments: toward virtual polypharmacology” (J Med Chem, 2008)
